Values of other authors as cited in patent publication US8324220B2 (priority 2003, dated 2012).

How the values were obtained:
neuropathic pain = details: human, in vivo
NaV1.1 = NaV1.1 (Homo sapiens, UniProt P35498); details: read-out: TTX IC50
NaV1.9 = NaV1.9 (Homo sapiens, UniProt Q9UI33)
NaV1.6 = NaV1.6 (Homo sapiens, UniProt Q9UQD0); details: read-out: TTX IC50
NaV1.8 = NaV1.8 (Homo sapiens, UniProt Q9Y5Y9)
NaV1.5 = NaV1.5 (Homo sapiens, UniProt Q14524)
NaV1.3 = NaV1.3 (Homo sapiens, UniProt Q9NY46); details: read-out: TTX IC50
NaV1.2 = NaV1.2 (Homo sapiens, UniProt Q99250); details: read-out: TTX IC50

NaV1.8, sequence (Q9Y5Y9 whole entry, looked up): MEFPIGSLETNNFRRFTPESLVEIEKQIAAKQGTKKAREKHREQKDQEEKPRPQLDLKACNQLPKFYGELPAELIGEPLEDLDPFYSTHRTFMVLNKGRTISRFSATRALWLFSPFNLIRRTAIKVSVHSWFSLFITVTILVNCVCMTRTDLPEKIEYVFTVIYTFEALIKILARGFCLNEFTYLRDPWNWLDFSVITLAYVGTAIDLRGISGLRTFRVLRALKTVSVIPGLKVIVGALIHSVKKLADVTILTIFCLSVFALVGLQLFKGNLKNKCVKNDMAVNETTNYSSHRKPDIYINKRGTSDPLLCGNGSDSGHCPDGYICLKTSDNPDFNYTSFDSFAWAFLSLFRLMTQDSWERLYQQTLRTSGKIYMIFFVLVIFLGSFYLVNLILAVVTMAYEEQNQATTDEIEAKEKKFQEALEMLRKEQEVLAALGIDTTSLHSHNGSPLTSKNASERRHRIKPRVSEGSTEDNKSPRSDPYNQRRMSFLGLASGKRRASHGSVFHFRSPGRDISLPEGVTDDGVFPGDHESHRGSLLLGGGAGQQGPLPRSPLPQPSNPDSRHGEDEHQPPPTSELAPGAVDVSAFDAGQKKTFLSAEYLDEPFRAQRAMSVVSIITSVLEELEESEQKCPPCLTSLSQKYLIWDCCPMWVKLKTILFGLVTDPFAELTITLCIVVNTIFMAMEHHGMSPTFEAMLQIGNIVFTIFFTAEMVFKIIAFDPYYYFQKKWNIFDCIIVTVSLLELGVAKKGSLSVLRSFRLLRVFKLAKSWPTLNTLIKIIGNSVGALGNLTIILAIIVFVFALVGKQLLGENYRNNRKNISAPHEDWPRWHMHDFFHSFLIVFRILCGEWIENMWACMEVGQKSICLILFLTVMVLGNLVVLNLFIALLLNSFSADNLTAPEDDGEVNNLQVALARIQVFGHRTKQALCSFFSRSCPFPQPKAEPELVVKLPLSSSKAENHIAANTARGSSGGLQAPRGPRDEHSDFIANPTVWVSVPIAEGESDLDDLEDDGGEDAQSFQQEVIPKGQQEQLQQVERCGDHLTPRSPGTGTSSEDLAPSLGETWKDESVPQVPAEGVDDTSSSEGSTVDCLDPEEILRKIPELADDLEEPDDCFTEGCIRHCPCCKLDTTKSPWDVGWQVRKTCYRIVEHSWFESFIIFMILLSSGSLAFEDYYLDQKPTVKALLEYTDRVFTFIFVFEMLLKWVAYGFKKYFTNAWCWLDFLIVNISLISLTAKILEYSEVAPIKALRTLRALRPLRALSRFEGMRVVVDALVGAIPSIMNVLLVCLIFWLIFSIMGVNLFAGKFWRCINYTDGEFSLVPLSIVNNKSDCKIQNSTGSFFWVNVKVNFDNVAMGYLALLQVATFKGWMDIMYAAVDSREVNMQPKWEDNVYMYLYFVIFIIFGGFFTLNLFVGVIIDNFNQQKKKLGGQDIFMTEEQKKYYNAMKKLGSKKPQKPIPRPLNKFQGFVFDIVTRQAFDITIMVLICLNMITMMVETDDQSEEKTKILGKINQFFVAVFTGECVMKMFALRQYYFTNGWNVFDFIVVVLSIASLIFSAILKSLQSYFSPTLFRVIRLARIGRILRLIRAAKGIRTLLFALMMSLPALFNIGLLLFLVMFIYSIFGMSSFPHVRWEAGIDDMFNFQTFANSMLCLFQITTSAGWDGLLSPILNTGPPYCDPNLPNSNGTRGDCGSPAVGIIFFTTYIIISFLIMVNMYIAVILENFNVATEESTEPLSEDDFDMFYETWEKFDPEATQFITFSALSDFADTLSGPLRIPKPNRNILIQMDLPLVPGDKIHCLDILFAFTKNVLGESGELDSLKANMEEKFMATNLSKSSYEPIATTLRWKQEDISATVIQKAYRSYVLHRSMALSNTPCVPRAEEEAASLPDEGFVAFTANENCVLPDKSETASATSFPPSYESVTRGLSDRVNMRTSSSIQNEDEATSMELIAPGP
NaV1.9, sequence (Q9UI33 whole entry, looked up): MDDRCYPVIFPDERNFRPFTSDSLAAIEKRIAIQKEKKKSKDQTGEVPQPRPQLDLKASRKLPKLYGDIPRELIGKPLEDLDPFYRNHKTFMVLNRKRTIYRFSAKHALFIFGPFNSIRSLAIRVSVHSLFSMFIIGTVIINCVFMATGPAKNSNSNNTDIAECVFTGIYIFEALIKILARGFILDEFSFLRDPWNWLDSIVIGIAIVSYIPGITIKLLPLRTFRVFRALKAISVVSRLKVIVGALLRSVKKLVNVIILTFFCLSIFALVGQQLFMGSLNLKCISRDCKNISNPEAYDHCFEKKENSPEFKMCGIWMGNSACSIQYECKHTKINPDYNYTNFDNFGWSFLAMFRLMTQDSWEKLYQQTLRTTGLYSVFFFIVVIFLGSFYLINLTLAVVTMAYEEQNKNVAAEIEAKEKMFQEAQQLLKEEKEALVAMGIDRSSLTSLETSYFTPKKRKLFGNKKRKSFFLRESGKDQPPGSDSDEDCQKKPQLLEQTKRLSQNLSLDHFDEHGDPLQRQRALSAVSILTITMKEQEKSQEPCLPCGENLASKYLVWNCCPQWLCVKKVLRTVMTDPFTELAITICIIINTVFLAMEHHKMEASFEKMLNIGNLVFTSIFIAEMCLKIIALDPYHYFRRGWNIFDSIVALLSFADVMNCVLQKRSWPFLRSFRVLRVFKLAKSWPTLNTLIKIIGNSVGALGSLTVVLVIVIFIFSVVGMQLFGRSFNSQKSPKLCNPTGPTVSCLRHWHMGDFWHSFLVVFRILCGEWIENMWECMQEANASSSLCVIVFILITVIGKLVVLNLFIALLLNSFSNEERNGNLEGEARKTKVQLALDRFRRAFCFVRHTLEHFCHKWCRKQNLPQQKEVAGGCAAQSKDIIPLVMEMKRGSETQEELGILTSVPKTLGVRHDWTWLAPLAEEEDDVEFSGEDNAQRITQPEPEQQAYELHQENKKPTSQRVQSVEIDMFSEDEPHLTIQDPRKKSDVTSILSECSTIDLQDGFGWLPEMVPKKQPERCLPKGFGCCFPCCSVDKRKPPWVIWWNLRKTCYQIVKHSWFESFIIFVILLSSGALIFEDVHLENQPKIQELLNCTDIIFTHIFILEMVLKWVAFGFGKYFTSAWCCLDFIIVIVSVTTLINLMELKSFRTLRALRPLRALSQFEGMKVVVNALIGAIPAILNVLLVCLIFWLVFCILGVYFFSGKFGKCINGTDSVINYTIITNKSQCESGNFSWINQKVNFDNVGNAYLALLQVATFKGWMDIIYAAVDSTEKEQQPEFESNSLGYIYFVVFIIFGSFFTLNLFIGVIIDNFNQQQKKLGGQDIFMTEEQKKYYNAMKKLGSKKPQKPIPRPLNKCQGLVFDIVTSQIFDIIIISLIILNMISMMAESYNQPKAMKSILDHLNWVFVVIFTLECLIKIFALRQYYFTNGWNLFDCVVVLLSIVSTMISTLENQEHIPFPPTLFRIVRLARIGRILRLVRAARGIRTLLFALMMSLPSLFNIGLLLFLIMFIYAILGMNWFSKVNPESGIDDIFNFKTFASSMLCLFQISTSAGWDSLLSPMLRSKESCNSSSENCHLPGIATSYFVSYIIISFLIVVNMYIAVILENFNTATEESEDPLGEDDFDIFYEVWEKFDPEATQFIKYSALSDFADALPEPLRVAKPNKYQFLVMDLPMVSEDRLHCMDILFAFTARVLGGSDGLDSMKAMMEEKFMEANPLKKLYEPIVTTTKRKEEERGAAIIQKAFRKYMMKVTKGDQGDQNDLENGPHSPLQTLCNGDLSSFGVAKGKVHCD

SMILES	share of patients in which the drug works (neuropathic pain) [%]	IC50 (NaV1.1) [nM]	block by TTX (NaV1.9)	IC50 (NaV1.9; read-out: TTX IC50) [nM]	IC50 (NaV1.6) [nM]	block by TTX (NaV1.8)	IC50 (NaV1.8; read-out: TTX IC50) [nM]	block by TTX (NaV1.5)	IC50 (NaV1.3) [nM]	IC50 (NaV1.2) [nM]
NCC1(CC(=O)O)CCCCC1 [Gabapentin]	60	–	–	–	–	–	–	–	–	–
NC1=N[C@H](O)[C@H]2[C@H]3O[C@]4(O)O[C@@H]([C@@H](O)[C@@]2(N1)[C@@H]4O)[C@]3(O)CO [TTX, tetrodotoxin]	–	10	resistant to block	1000	6	resistant to block	> 50000	resistant to block	15	10
